Consider 4 compounds from patent publication US20110071096A1, “Macrolides Having Antibiotic Activity” (IDEXX Laboratories, Inc., priority 2009, published 2011).

In assay [1] the test system is Pasteurella multocida. The assay is described as follows: Minimum inhibitory concentration, gram negative bacteria. The assay is classed as cell-based.
The test system of assay [2] is Enterococcus faecalis. The assay is described as follows: Minimum inhibitory concentration, gram positive bacteria. Format: cell-based.
The test system of assay [3] is Streptococcus pyogenes. The description is as above. The assay is classed as cell-based.
A further assay concerns Bacillus subtilis. The description is as above. Format: cell-based.
Assay [4] deals with Clostridium perfringens. The assay is described as follows: microbe, parasite or virus in culture. As to conditions: read-out: Minimum Inhibitory Concentration Clostridium perfringens. Format: cell-based.
Another assay deals with Staphylococcus aureus. The assay is described as follows: Minimum inhibitory concentration, gram positive bacteria. The assay is classed as cell-based.
Assay [5] concerns Streptococcus pneumonia. The assay is described as above. The following applies: Streptococcus pneumoniae. The assay is classed as cell-based.
For assay [6], the system named is Bacteroides fragilis. The assay is described as follows: Minimum inhibitory concentration, gram negative bacteria. Format: cell-based.
In another assay the test system is Klebsiella Pneumonia. Described as above. The assay is classed as cell-based. The following applies: Klebsiella pneumoniae.
A further assay concerns Escheria Coli. The description is as above. Format: cell-based.
Assay [7] deals with Bordetella bronchispetica. The assay is described as above. Format: cell-based.
The subject of assay [8] is Streptococcus pyogenes. As to conditions: gram positive; from J. Med. Chem., 44, 4137-4156 (2001); cited from earlier work.
Assay [9] has as its system Enterococcus faecalis. As to conditions: gram positive; from J. Clin. Micro., 26: 11, 2415-2420 (1988); cited from earlier work.
In assay [10] the test system is Streptococcus pneumonia. As to conditions: gram positive; from J. Med. Chem., 44, 4137-4156 (2001); cited from earlier work.
For assay [11], the system named is Clostridium perfringens. The following applies: gram positive; from J. F. Presscott, Antimicrobial Therapy in Veterinary Medicine, 3rd ed.; cited from earlier work.
Assay [12] deals with Pasteurella multocida. As to conditions: gram negative; from J. F. Presscott, Antimicrobial Therapy in Veterinary Medicine, 3rd ed.; cited from earlier work.
In assay [13] the test system is Bacteroides fragilis. As to conditions: gram negative; from J. F. Presscott, Antimicrobial Therapy in Veterinary Medicine, 3rd ed.; cited from earlier work.

≈ marks a conversion by molar mass, not a printed value. Marks after values point to notes of the source that are not given here. Some results are limits rather than exact numbers.

As for `CC[C@H]1OC(=O)[C@H](C)[C@@H](O[C@H]2C[C@@](C)(OC)[C@@H](O)[C@H](C)O2)[C@H](C)[C@@H](O[C@@H]2O[C@H](C)C[C@H](N(C)C)[C@H]2O)[C@](C)(O)C[C@@H](C)/C(=N\OCOCCOC)[C@H](C)[C@@H](O)[C@]1(C)O` [Roxithromycin], the MIC against Pasteurella multocida [1] amounted to 1 µg/mL (≈ 1.19 µM); against Enterococcus faecalis [2] it was 8 µg/mL (≈ 9.56 µM); in the assay on Streptococcus pyogenes [3] it was 0.25 µg/mL (≈ 0.299 µM); against Bacillus subtilis, 0.25 µg/mL (≈ 0.299 µM); in the assay with Clostridium perfringens [4] it was 2 µg/mL (≈ 2.39 µM); in the assay on Staphylococcus aureus, 0.25 µg/mL (≈ 0.299 µM). For the same compound, the MIC against Streptococcus pneumonia [5] is 0.25 µg/mL (≈ 0.299 µM); in the assay on Bacteroides fragilis [6], less than 2 µg/mL; against Klebsiella Pneumonia, 32 µg/mL (≈ 38.2 µM); against Escheria Coli, 32 µg/mL (≈ 38.2 µM); in assay [7] it was 1 µg/mL (≈ 1.19 µM).
On to `CC[C@H]1OC(=O)[C@H](C)[C@@H](O[C@H]2C[C@@](C)(OC)[C@@H](O)[C@H](C)O2)[C@H](C)[C@@H](O[C@@H]2O[C@H](C)C[C@H](N(C)C)[C@H]2O)[C@](C)(O)C[C@@H](C)C(=O)[C@H](C)[C@@H](O)[C@]1(C)O` [Erythromycin], for which the “Minimum Inhibitory Concentration Streptococcus pyogenes” value in the assay on Streptococcus pyogenes [8] was 0.06^(1) μg/mL. Also, in the assay on Enterococcus faecalis [9], the “Minimum Inhibitory Concentration Enterococcus faecalis” value is 2.7^(3) μg/mL. Besides, the “Minimum Inhibitory Concentration Streptococcus pneumonia” value with Streptococcus pneumonia [10] is given as 0.06^(1) μg/mL. Further, the “Minimum Inhibitory Concentration Clostridium perfringens” value in the assay on Clostridium perfringens [11] is reported as 4* μg/mL. Moreover, the MIC with Bacillus subtilis turned out to be 0.25 µg/mL (≈ 0.341 µM); against Staphylococcus aureus, 0.25 µg/mL (≈ 0.341 µM); in the assay with Escheria Coli it was 32 µg/mL (≈ 43.6 µM); in assay [7] it was 4 µg/mL (≈ 5.45 µM). The “Minimum Inhibitory Concentration Pasteurella multocida” value with Pasteurella multocida [12] is recorded as 4* μg/mL. For the same compound, in the assay on Bacteroides fragilis [13], the “Minimum Inhibitory Concentration Bacteroides fragilis” value is given as >8* μg/mL.
As for `CC[C@H]1OC(=O)[C@H](C)[C@@H](OC2CC(C)(OC)C(OCCCN(C)C)C(C)O2)[C@H](C)[C@@H](OC2OC(C)CC(N(C)C)C2O)[C@](C)(OC)C[C@@H](C)C(=O)[C@H](C)[C@@H](O)[C@]1(C)O` (stereo partly drawn) [Formula 2, 4″-DMAP-Clarithromycin ether], the MIC against Pasteurella multocida [1] turned out to be 1 µg/mL; with Enterococcus faecalis [2] it was 8 µg/mL; against Streptococcus pyogenes [3], 0.25 µg/mL; against Bacillus subtilis it was 0.25 µg/mL; in the assay with Clostridium perfringens [4], 2 µg/mL; in the assay with Staphylococcus aureus it was 0.25 µg/mL. The MIC came to 0.25 µg/mL against Streptococcus pneumonia [5]; 2 µg/mL against Bacteroides fragilis [6]; 32 µg/mL with Klebsiella Pneumonia; 32 µg/mL against Escheria Coli; 4 µg/mL in assay [7].
On to `CC[C@H]1OC(=O)[C@H](C)[C@@H](O[C@H]2C[C@@](C)(OC)[C@@H](O)[C@H](C)O2)[C@H](C)[C@@H](O[C@@H]2O[C@H](C)C[C@H](N(C)C)[C@H]2O)[C@](C)(OC)C[C@@H](C)C(=O)[C@H](C)[C@@H](O)[C@]1(C)O` [Clarithromycin], for which, in the assay with Streptococcus pyogenes [8], the “Minimum Inhibitory Concentration Streptococcus pyogenes” value was 0.06^(1) μg/mL. Besides, the “Minimum Inhibitory Concentration Enterococcus faecalis” value in the assay with Enterococcus faecalis [9] is 2.7^(3) μg/mL. For the same compound, in the assay on Streptococcus pneumonia [10], the “Minimum Inhibitory Concentration Streptococcus pneumonia” value was 0.03^(1) μg/mL. For the same compound, the “Minimum Inhibitory Concentration Clostridium perfringens” value in the assay on Clostridium perfringens [11] is 4* μg/mL. For the same compound, the MIC against Bacillus subtilis is less than 0.25 µg/mL; with Staphylococcus aureus, less than 0.25 µg/mL; against Escheria Coli, 32 µg/mL (≈ 42.8 µM); in assay [7] it was 4 µg/mL (≈ 5.35 µM). The “Minimum Inhibitory Concentration Pasteurella multocida” value in the assay with Pasteurella multocida [12] is recorded as 2* μg/mL. Moreover, the “Minimum Inhibitory Concentration Bacteroides fragilis” value in the assay with Bacteroides fragilis [13] is 16* μg/mL.
